{"source": "patent US6416964B2", "about": "“Methods of identifying modulators of kinases responsive to stress” (Merck & Co., Inc., priority 1998, dated 2002)", "key": {"[1]": {"test_system": "34 kDa Mst kinase (Mst 1 cleavage)", "experiment": "34 kDa Mst kinase activation / Mst 1 cleavage in purified osteoclasts", "assay_type": "cell-based", "conditions": "for activation of the 34 kDa Mst kinase: purified osteoclasts"}, "50 kDa Kinase [2]": {"test_system": "50 kDa Kinase", "experiment": "in-gel kinase assay (myelin basic protein substrate) in purified preosteoclasts", "assay_type": "cell-based, mouse", "protocol": "(§1) The following procedure is a modification of Wesolowski et al. (1995, Exp. Cell Res. 219: 679-686), which is incorporated by reference herein in its entirety. Cocultures are made by adding marrow cells from 6-week old mouse tibia and femur onto a monolayer of MB 1.8 mouse calvaria osteoblasts that are preseeded into culture dishes in α-MEM (minimal essential medium) containing fetal calf serum (10%) and 1,25 Dihydroxy Vitamin D3 (10 nM). Cocultures are maintained, with media changes every 48 hours, for a period of 6 days. Non-osteoclastic cells are removed by treatment of cocultures with Collagenase I (1 mg/ml in Phosphate Buffered Saline [PBS]). Collagenase-sensitive cells are removed by washing with PBS. Preosteoclasts are lifted from the dish using EDTA (0.2 g/L in PBS) and transferred into culture dishes and maintained in α-MEM containing fetal calf serum (10%), 1,25 Dihydroxy Vitamin D3 (10 nM), and m-Colony Stimulating Factor (5 ng/ml). Osteoclast-like cells (collagenase-insensitive, EDTA-insensitive cells) that remain attached to the original coculture dishes are maintained in α-MEM containing fetal calf serum (10%), 1,25 Dihydroxy Vitamin D3 (10 nM), and m-Colony Stimulating Factor (5 ng/ml).\n(§2) Preosteoclasts are generated and purified as described in Example 1. […] Untreated cells are included in the analyses and act as a negative control for kinase activities. Cells are then harvested and lysed in a HEPES (N-(2-hydroxyethyl)piperazine-N′-(2-ethansulfonic acid) or Tris buffer containing the following: β-glycerophosphate (50 mM); Na3VO4 (1 mM); NaF (1 mM); Microcystin LR (1 μM); leupeptin (10 μg/ml); aprotinin (10 μg/ml); phenylmethyl sulfonylfluoride (1 mM). Protein concentrations are determined for each lysate and 5-20 μg are loaded into each lane of a SDS-PAGE (sodium dodecyl sulfate-polyacrylamide gel electrophoresis) gel containing Myelin Basic Protein, or another kinase substrate, which has been polymerized into the gel at a concentration between 50-400 μg/ml. Molecular weight standards are also loaded into one or more lanes of the gels. In-gel kinase assays are run according to a standard procedure based on Kameshita and Fujisawa, 1989 (Anal. Biochem. 183:139-143) and of Gotoh et al., 1990 (Eur. J. Biochem. 193: 661-669), both references being incorporated by reference herein in their entirety. The proteins are electrophoresed in the above gels. The gels are then successively soaked in 50 mM HEPES, pH 7.6; 5 mM 2-mercaptoethanol and each of the following (for each wash): (a) 20% isopropanol; (b) no additions; (c) urea (6 M); (d) Urea (3 M); (e) Urea (0.75 M); and Tween 20 (0.05% vol:vol). Kinase reactions are then run by first soaking the gels in 20 mM HEPES, pH 7.6; 20 mM MgCl2; 2 mM DTT and then in the same buffer containing […] (non-radioactive) with ca. 1000 cpm/pmol ^32P-γ-ATP. The gels are then washed six times with 5% trichloroacetic acid and 1% pyrophosphate. The gels are then stained with Coomassie brilliant blue dye (0.125%) in 50% methanol, 10% acetic acid; destained with 30% methanol, 10% acetic acid; soaked in 2% glycerol; and dried using a gel dryer. The gels are then exposed to autoradiography film for times ranging from several hours to weeks. The bands observed in the autoradipgraphs representing the gels reflect kinase activities. […] The band intensities on the autoradiography film are quantitated by densitometry and comparisons between bands from untreated controls and bands from echistatin-treated cells provide the basis for the analyses."}, "[3]": {"test_system": "approximately 60 kDa kinase doublet (Mst 1, Mst 2)", "experiment": "in-gel kinase assay (myelin basic protein substrate) in purified preosteoclasts", "assay_type": "cell-based, mouse", "protocol": "as §1, §2"}, "Mst 1, Mst 2 [4]": {"test_system": "Mst 1, Mst 2", "experiment": "in-gel kinase assay in HEK 293 transfectants expressing human αvβ3 integrin", "assay_type": "cell-based", "conditions": "αvβ3 integrin transfected HEK 293 cells"}, "50 kDa Kinase [5]": {"test_system": "50 kDa Kinase", "experiment": "in-gel kinase assay in HEK 293 transfectants expressing human αvβ3 integrin", "assay_type": "cell-based", "conditions": "αvβ3 integrin transfected HEK 293 cells"}, "stress reponsive kinases": {"test_system": "stress reponsive kinases", "experiment": "activation of stress responsive kinases by compounds that modify osteoclast function", "assay_type": "cell-based", "protocol": "as §2"}, "Mst 1, Mst 2 [6]": {"test_system": "Mst 1, Mst 2", "experiment": "in-gel kinase assay in Parental HEK 293 cells", "assay_type": "cell-based, human", "conditions": "10-60 min (FIG. 5D-5F), Ala^24 echistatin 30 nM"}, "50 kDa Kinase [7]": {"test_system": "50 kDa Kinase", "experiment": "in-gel kinase assay in Parental HEK 293 cells", "assay_type": "cell-based, human", "conditions": "10-60 min (FIG. 5D-5F), Ala^24 echistatin 30 nM"}, "34 kDa Kinase": {"test_system": "34 kDa Kinase", "experiment": "in-gel kinase assay in osteoclast-like cells", "assay_type": "cell-based, mouse", "protocol": "as §1, §2\nA similar approach is also used to assay for the 34 kDa Kinase and the 130 kDa Kinase.\nOsteoclast-like cells are generated as described in Example 1. The compound or compounds to be evaluated are added at the desired concentration to the osteoclast-like cells for any of various times (1 minute to several hours). Cell lysates are made using standard techniques and in-gel kinase assays are performed as described in Example 2."}, "[8]": {"conditions": "dose response, standard (overnight) film exposure (FIG. 2A)"}, "[9]": {"conditions": "osteoclast like cells, 30 μM and 100 μM, about 17 hours (FIG. 6)"}, "[10]": {"conditions": "osteoclast-like cells, 100 μM and 300 μM (FIG. 9)"}}}
{"compound": "NCCC(O)(P(=O)(O)O)P(=O)(O)O", "note": "[pamidronate, 3-amino-1-hydroxypropylidene-1,1-bisphosphonic acid]", "values": [{"measurement": "activation of the 34 kDa Mst kinase", "setting": "[1]", "value": "induce activation"}]}
{"compound": "CC[C@H](C)C(=O)O[C@H]1C[C@@H](C)C=C2C=C[C@H](C)[C@H](CC[C@@H]3C[C@@H](O)CC(=O)O3)[C@H]21", "note": "[lovastatin]", "values": [{"measurement": "34 kDa Mst 1 activity", "setting": "[1]; treatment for 17-24 hours", "value": "increases"}]}
{"compound": "O=P(O)(O)C(O)(Cc1cccnc1)P(=O)(O)O", "note": "[risedronate, 1-hydroxy-2-(3-pyridinyl)-ethylidene-1,1-bisphosphonic acid]", "values": [{"measurement": "activation of the 34 kDa Mst kinase", "setting": "[1]", "value": "induce activation"}]}
{"compound": "O=C(NC[C@H](NS(=O)(=O)c1ccccc1)C(=O)O)c1ccc(OCCNC2=NCCCN2)cc1", "note": "[RGD II, (2-[N-(3,4,5,6-tetrahydropyrimidin-2-yl)amino]ethyloxyphen-4-yl)carbonyl-2(S)-phenylsulfonamido-beta-alanine]", "values": [{"measurement": "activation of 50 kDa kinase", "setting": "50 kDa Kinase [2]; 10 μM (FIG. 4B)", "value": "effective in activating"}, {"measurement": "activation of Mst 1, Mst 2", "setting": "[3]; 10 μM (FIG. 4B)", "value": "effective in activating"}, {"measurement": "change in Mst 1 (ca. 59 kDa), Mst 2 (ca. 60 kDa) activities", "setting": "Mst 1, Mst 2 [4]; 10 μM, 0-60 min (FIG. 5B)", "value": "increase"}, {"measurement": "change in 50 kDa Kinase activity", "setting": "50 kDa Kinase [5]; 10 μM, 0-60 min (FIG. 5B)", "value": "increase"}, {"measurement": "activation of stress responsive kinases", "setting": "stress reponsive kinases", "value": "activate"}]}
{"compound": "echistatin", "values": [{"measurement": "activation of kinase of approximately 50 kDa", "setting": "50 kDa Kinase [2]; 30 nM, time course (FIG. 1B)", "value": "also activated"}, {"measurement": "activation of the approximately 50 kDa kinase", "setting": "50 kDa Kinase [2]; 30 and 100 nM doses, extended (about 3-4 days) exposure (FIG. 2B)", "value": "activation"}, {"measurement": "activation of approximately 60 kDa kinase doublet", "setting": "[3]; 30 nM, time course (FIG. 1B)", "value": "strongly activated"}, {"measurement": "concentration of maximal activities of approximately 60 kDa kinase doublet", "setting": "[3]; [8]", "value": "about 30 nM"}, {"measurement": "concentrations showing activation of approximately 60 kDa kinase doublet", "setting": "[3]; [8]", "value": "≥ 10", "unit": "nM"}, {"measurement": "treatment time of maximal kinase activity", "setting": "[3]; timecourse (FIG. 4A)", "value": 20, "unit": "min"}, {"measurement": "change in Mst 1 (ca. 59 kDa), Mst 2 (ca. 60 kDa) activities", "setting": "Mst 1, Mst 2 [4]; 30 nM, 0-60 min (FIG. 5A, 5C)", "value": "increase"}, {"measurement": "change in 50 kDa Kinase activity", "setting": "50 kDa Kinase [5]; 30 nM, 0-60 min (FIG. 5A, 5C)", "value": "increase"}, {"measurement": "effect on activities of Mst 1, Mst 2", "setting": "Mst 1, Mst 2 [6]", "value": "no significant effect"}, {"measurement": "effect on activity of 50 kDa Kinase", "setting": "50 kDa Kinase [7]", "value": "no significant effect"}, {"measurement": "activation of stress responsive kinases", "setting": "stress reponsive kinases", "value": "activate"}]}
{"compound": "O=P(O)(O)C(Sc1ccc(Cl)cc1)P(=O)(O)O", "note": "[tiludronate disodium, (4-chlorophenyl)thiomethane-1,1-disphosphonic acid]", "values": [{"measurement": "activation of 34 kDa Kinase", "setting": "34 kDa Kinase; [9]", "value": "failed to activate"}, {"measurement": "activation of 34 kDa Kinase", "setting": "34 kDa Kinase; [10]", "value": "failed to activate"}]}
{"compound": "NCCCC(O)(P(=O)(O)O)P(=O)(O)O", "note": "[alendronate, 4-amino-1-hydroxybutylidene-1,1-bisphosphonic acid monosodium trihydrate]", "values": [{"measurement": "activation of 34 kDa Kinase", "setting": "34 kDa Kinase; osteoclast like cells, 30 μM (FIG. 7, lane 2)", "value": "activation"}, {"measurement": "activation of 34 kDa Kinase", "setting": "34 kDa Kinase; [9]", "value": "activation"}, {"measurement": "activation of 34 kDa Kinase", "setting": "34 kDa Kinase; osteoclast-like cells, 10 μM and 30 μM, about 17 hours (FIG. 9)", "value": "activation"}, {"measurement": "activation of 34 kDa Kinase immunoprecipitated by anti-Mst and anti-Krs antibody cocktail", "setting": "34 kDa Kinase; osteoclast-like cells, 30 μM (FIG. 10, lane 3)", "value": "activated"}, {"measurement": "activation of 34 kDa Kinase when coincubated with caspase inhibitor Z—VAD—FMK", "setting": "34 kDa Kinase; osteoclast-like cells, in the presence of Z—VAD—FMK (FIG. 9, lane 8)", "value": "does not activate"}, {"measurement": "activation of the 34 kDa Mst kinase", "setting": "[1]", "value": "induce activation"}, {"measurement": "activation of stress responsive kinases", "setting": "stress reponsive kinases", "value": "activate"}]}
{"compound": "CC(C)=CCCC(C)=CCCC(C)=CCO", "note": "[farnesol]", "values": [{"measurement": "blocking of lovastatin effects (34 kDa Mst 1 activity)", "setting": "[1]", "value": "not"}, {"measurement": "reduction of alendronate- and risedronate-induced Mst 1 cleavage", "setting": "[1]", "value": "about 50%"}]}
{"compound": "calcitonin", "values": [{"measurement": "activation of stress responsive kinases", "setting": "stress reponsive kinases", "value": "activate"}]}
{"compound": "CC(O)(P(=O)(O)O)P(=O)(O)O", "note": "[etidronate disodium, 1-hydroxyethane-1,1-diphosphonic acid]", "values": [{"measurement": "activation of 34 kDa Kinase", "setting": "34 kDa Kinase; [9]", "value": "failed to activate"}, {"measurement": "activation of 34 kDa Kinase", "setting": "34 kDa Kinase; [10]", "value": "failed to activate"}, {"measurement": "activation of the 34 kDa Mst kinase", "setting": "[1]", "value": "to a lesser extent"}]}
{"compound": "CC(C)=CCC/C(C)=C/CC/C(C)=C/CC/C(C)=C/CO", "note": "[geranylgeraniol]", "values": [{"measurement": "effect on activation of 34 kDa Kinase by 30 μM alendronate monosodium trihydrate", "setting": "34 kDa Kinase; osteoclast like cells, 10 μM geranyl geraniol (FIG. 7, lane 3)", "value": "negates this activation"}, {"measurement": "blocking of alendronate- and risedronate-induced Mst 1 cleavage", "setting": "[1]", "value": "essentially completely blocked"}, {"measurement": "blocking of clodronate effects (34 kDa Mst kinase)", "setting": "[1]", "value": "not blocked"}, {"measurement": "blocking of lovastatin effects (34 kDa Mst 1 activity)", "setting": "[1]", "value": "blocked"}]}
{"compound": "O=P(O)(O)C(Cl)(Cl)P(=O)(O)O", "note": "[Clodronate, 1,1-dichloromethylene-1,1-diphosphonic acid]", "values": [{"measurement": "activation of the 34 kDa Mst kinase", "setting": "[1]", "value": "also induce"}]}
{"compound": "C[C@@](O)(CCO)CC(=O)O", "note": "[mevalonic acid]", "values": [{"measurement": "blocking of lovastatin effects (34 kDa Mst 1 activity)", "setting": "[1]", "value": "blocked"}]}
{"compound": "Cl.Cl.Cl.O=C(O)C[C@H](Cc1cnc2ccccc2c1)NC(=O)CN1CC[C@H](NCc2ccc3c(n2)NCCC3)C1=O", "note": "[RGD I]", "values": [{"measurement": "activation of 50 kDa kinase", "setting": "50 kDa Kinase [2]; 10 nM (FIG. 4B)", "value": "effective in activating"}, {"measurement": "activation of Mst 1, Mst 2", "setting": "[3]; 10 nM (FIG. 4B)", "value": "effective in activating"}, {"measurement": "activation of stress responsive kinases", "setting": "stress reponsive kinases", "value": "activate"}]}
{"compound": "C[C@@]1(O)CCOC(=O)C1", "note": "[mevalonic acid lactone]", "values": [{"measurement": "reduction of alendronate- and risedronate-induced Mst 1 cleavage", "setting": "[1]", "value": "about 50%"}]}
